From US9738932B2, “Biomarkers for cardiovascular side-effects induced by cox-2 inhibitory compounds” (FIRALIS SAS, priority 2005, dated 2017)

Test system: mRNA expression in cardiovascular tissues
Test: Affymetrix GeneChip mRNA expression profiling of monkey tissues (iliac vein, pulmonary vein, aorta, carotid artery, heart) after two-week oral-gavage treatment
Settings: iliac vein
[1] = group average (Vioxx without A60055)
[2] = group avg, Vioxx without A60055

For `O=C(O)Cc1ccccc1Nc1c(Cl)cccc1Cl` [Voltaren], the “ACE (209749_s_at) mRNA expression, Avg fold changes vs control” value [1] was 1.1 fold, the “B2M (216231_s_at) mRNA expression, Avg fold changes vs control” value [1] was 1.2 fold and the “BCL6 (215990_s_at) mRNA expression, Avg fold changes vs control” value [1] was 1.0 fold. The “BTN2A2 (205298_s_at) mRNA expression, Avg fold changes vs control” value [1] was 1.1 fold, the “CCR1 (205098_at) mRNA expression, Avg fold changes vs control” value [1] was 1.3 fold and the “CD2 (205831_at) mRNA expression, Avg fold changes vs control” value [1] was 1.1 fold. The “CD48 (204118_at) mRNA expression, Avg fold changes vs control” value [1] was 1.2 fold, the “CD53 (203416_at) mRNA expression, Avg fold changes vs control” value [1] was 1.4 fold and the “CDC2 (210559_s_at) mRNA expression, Avg fold changes vs control” value [1] was 1.2 fold. The “CYBB (203922_s_at) mRNA expression, Avg fold changes vs control” value [1] was 1.1 fold, the “EMP3 (203729_at) mRNA expression, Avg fold changes vs control” value [1] was 0.8 fold and the “FCER1G (204232_at) mRNA expression, Avg fold changes vs control” value [1] was 1.5 fold. The “FCGR2A (203561_at) mRNA expression, Avg fold changes vs control” value [1] was 1.4 fold, the “FCGRT (218831_s_at) mRNA expression, Avg fold changes vs control” value [1] was 0.9 fold and the “FKBP11 (219117_s_at) mRNA expression, Avg fold changes vs control” value [1] was 0.7 fold. For the same molecule, the “FKBP11 (219118_at) mRNA expression, Avg fold changes vs control” value [1] was 0.8 fold, the “GP6 (220336_s_at) mRNA expression, Avg fold changes vs control” value [1] was 1.0 fold and the “HCLS1 (202957_at) mRNA expression, Avg fold changes vs control” value [1] was 1.1 fold. For the same molecule, the “HEM1 (209734_at) mRNA expression, Avg fold changes vs control” value [1] was 1.1 fold, the “HLA-A (210514_x_at) mRNA expression, Avg fold changes vs control” value [1] was 1.0 fold and the “HLA-A (213932_x_at) mRNA expression, Avg fold changes vs control” value [1] was 1.1 fold. For the same molecule, the “HLA-C (211799_x_at) mRNA expression, Avg fold changes vs control” value [1] was 0.8 fold, the “HLA-E (200904_at) mRNA expression, Avg fold changes vs control” value [1] was 1.2 fold and the “HLA-F (221978_at) mRNA expression, Avg fold changes vs control” value [1] was 1.4 fold. The “ICAM1 (202637_s_at) mRNA expression, Avg fold changes vs control” value [1] was 1.0 fold, the “IL13RA1 (210904_s_at) mRNA expression, Avg fold changes vs control” value [1] was 0.9 fold and the “PIK3CD (203879_at) mRNA expression, Avg fold changes vs control” value [1] was 1.3 fold. The “PRKCBP1 (209048_s_at) mRNA expression, Avg fold changes vs control” value [1] was 1.0 fold, the “PRKCBP1 (209049_s_at) mRNA expression, Avg fold changes vs control” value [1] was 1.0 fold and the “PTPN7 (204852_s_at) mRNA expression, Avg fold changes vs control” value [1] was 1.4 fold. The “SIGIRR (52940_at) mRNA expression, Avg fold changes vs control” value [1] was 1.0 fold, the “STAT1 (200887_s_at) mRNA expression, Avg fold changes vs control” value [1] was 1.1 fold and the “STAT1 (AFFX-HUMISGF3A/M97935_3_at) mRNA expression, Avg fold changes vs control” value [1] was 1.0 fold. The “STAT3 (208992_s_at) mRNA expression, Avg fold changes vs control” value [1] was 1.1 fold, the “TCIRG1 (204158_s_at) mRNA expression, Avg fold changes vs control” value [1] was 1.0 fold and the “THY1 (213869_x_at) mRNA expression, Avg fold changes vs control” value [1] was 0.6 fold. For the same molecule, the “TMPO (209753_s_at) mRNA expression, Avg fold changes vs control” value [1] was 1.1 fold, the “TMSB10 (217733_s_at) mRNA expression, Avg fold changes vs control” value [1] was 1.2 fold and the “TNFRSF21 (218856_at) mRNA expression, Avg fold changes vs control” value [1] was 1.2 fold. For the same molecule, the “TRB@ (210915_x_at) mRNA expression, Avg fold changes vs control” value [1] was 1.0 fold, the “TRB@ (213193_x_at) mRNA expression, Avg fold changes vs control” value [1] was 1.2 fold and the “209813_x_at avg fold change vs control” value [2] was 1.0 fold. For the same molecule, the “AIF1 (209901_x_at) avg fold change vs control” value [2] was 1.2 fold, the “AIF1 (213095_x_at) avg fold change vs control” value [2] was 1.5 fold and the “B2M (201891_s_at) avg fold change vs control” value [2] was 1.4 fold. The “BCL3 (204908_s_at) avg fold change vs control” value [2] was 1.3 fold, the “BTN3A1 (207485_x_at) avg fold change vs control” value [2] was 1.1 fold and the “BTN3A3 (38241_at) avg fold change vs control” value [2] was 1.2 fold. The “BTN3A3 (204820_s_at) avg fold change vs control” value [2] was 1.3 fold, the “BTN3A3 (204821_at) avg fold change vs control” value [2] was 1.5 fold and the “C1QA (218232_at) avg fold change vs control” value [2] was 1.2 fold. For the same molecule, the “C1QB (202953_at) avg fold change vs control” value [2] was 1.1 fold, the “C1R (212067_s_at) avg fold change vs control” value [2] was 1.4 fold and the “C1S (208747_s_at) avg fold change vs control” value [2] was 1.7 fold. For the same molecule, the “C2 (203052_at) avg fold change vs control” value [2] was 1.2 fold, the “C4A (208451_s_at) avg fold change vs control” value [2] was 2.4 fold and the “CASP1 (209970_x_at) avg fold change vs control” value [2] was 1.5 fold. The “CASP1 (211367_s_at) avg fold change vs control” value [2] was 1.3 fold, the “CCL2 (216598_s_at) avg fold change vs control” value [2] was 9.0 fold and the “CCL3 (205114_s_at) avg fold change vs control” value [2] was 1.4 fold. For the same molecule, the “CCL5 (1405_i_at) avg fold change vs control” value [2] was 2.2 fold, the “CCL8 (214038_at) avg fold change vs control” value [2] was 1.8 fold and the “CCL18 (209924_at) avg fold change vs control” value [2] was 1.6 fold. The “CCL19 (210072_at) avg fold change vs control” value [2] was 1.6 fold, the “CCNB2 (202705_at) avg fold change vs control” value [2] was 1.3 fold and the “CD3D (213539_at) avg fold change vs control” value [2] was 1.9 fold. The “CD8A (205758_at) avg fold change vs control” value [2] was 1.4 fold, the “CD14 (201743_at) avg fold change vs control” value [2] was 1.1 fold and the “CD74 (209619_at) avg fold change vs control” value [2] was 1.3 fold. For the same molecule, the “CLU (208791_at) avg fold change vs control” value [2] was 1.0 fold, the “CMAH (210571_s_at) avg fold change vs control” value [2] was 1.4 fold and the “CTSC (201487_at) avg fold change vs control” value [2] was 1.4 fold. For the same molecule, the “CTSK (202450_s_at) avg fold change vs control” value [2] was 1.3 fold, the “CTSS (202902_s_at) avg fold change vs control” value [2] was 1.3 fold and the “CX3CR1 (205898_at) avg fold change vs control” value [2] was 1.6 fold. The “CXCL9 (203915_at) avg fold change vs control” value [2] was 1.3 fold, the “CXCL10 (204533_at) avg fold change vs control” value [2] was 1.3 fold and the “CXCL11 (210163_at) avg fold change vs control” value [2] was 2.1 fold. The “CXCL11 (211122_s_at) avg fold change vs control” value [2] was 2.0 fold, the “CXCL12 (209687_at) avg fold change vs control” value [2] was 1.3 fold and the “CYBA (203028_s_at) avg fold change vs control” value [2] was 1.0 fold. For the same molecule, the “CYBB (203923_s_at) avg fold change vs control” value [2] was 1.2 fold, the “CYP1B1 (202436_s_at) avg fold change vs control” value [2] was 1.3 fold and the “CYP3A5 (214234_s_at) avg fold change vs control” value [2] was 1.2 fold. The “CYP11B1 (214630_at) avg fold change vs control” value [2] was 0.9 fold, the “DUSP6 (208893_s_at) avg fold change vs control” value [2] was 1.1 fold and the “ECGF1 (204858_s_at) avg fold change vs control” value [2] was 1.4 fold. For the same molecule, the “ECM1 (209365_s_at) avg fold change vs control” value [2] was 1.1 fold, the “F2RL1 (206429_at) avg fold change vs control” value [2] was 1.5 fold and the “F13A1 (203305_at) avg fold change vs control” value [2] was 1.3 fold. The “FCGR1A (214511_x_at) avg fold change vs control” value [2] was 1.0 fold, the “FCGR3A (204006_s_at) avg fold change vs control” value [2] was 1.5 fold and the “G1P2 (205483_s_at) avg fold change vs control” value [2] was 2.1 fold. The “GZMB (210164_at) avg fold change vs control” value [2] was 1.8 fold, the “HCA127 (220040_x_at) avg fold change vs control” value [2] was 0.5 fold and the “HCK (208018_s_at) avg fold change vs control” value [2] was 1.2 fold. For the same molecule, the “HFE (210864_x_at) avg fold change vs control” value [2] was 0.9 fold.
